# Values quoted from earlier work in PMC7583271 (Journal of Insect Science, 2020).
# Biological target: antennal binding protein (PxylABP, accession no. AB189031.1)
# Settings: unit inferred, ref Deng et al. 2016
smiles,measurement,value
C=CCN=C=S [Allyl isothiocyanate],Kd,910 nM
